According to the NIST ThermoML archive (doi:10.1016/j.jct.2018.04.004):

Assay: xn = mol fraction of the nth substance listed
Settings: Liquid, pressure decay method, x1 = 0

Structure (SMILES): FC(C(F)(F)F)C(F)(F)F [1,1,1,2,3,3,3-heptafluoropropane] + CCCCCC[n+]1ccn(C)c1.O=S(=O)([N-]S(=O)(=O)C(F)(F)F)C(F)(F)F
- binary diffusion coefficient (303.15 K, 99.7 kPa): 2.72e-10 m2/s
- binary diffusion coefficient (313.15 K, 99.6 kPa): 3.5e-10 m2/s
- binary diffusion coefficient (323.15 K, 97.1 kPa): 5.28e-10 m2/s
- binary diffusion coefficient (333.15 K, 105 kPa): 9.6e-10 m2/s
- binary diffusion coefficient (343.15 K, 104.6 kPa): 1.26e-09 m2/s

Structure (SMILES): FC(F)(F)CC(F)(F)F [1,1,1,3,3,3-hexafluoropropane] + CCCCCC[n+]1ccn(C)c1.O=S(=O)([N-]S(=O)(=O)C(F)(F)F)C(F)(F)F
- binary diffusion coefficient (303.15 K, 86 kPa): 1.55e-10 m2/s
- binary diffusion coefficient (313.15 K, 85.5 kPa): 2.4e-10 m2/s
- binary diffusion coefficient (323.15 K, 95.7 kPa): 4.09e-10 m2/s
- binary diffusion coefficient (333.15 K, 90.1 kPa): 5.96e-10 m2/s
- binary diffusion coefficient (343.15 K, 90.7 kPa): 8.42e-10 m2/s

Structure (SMILES): FC(F)CC(F)(F)F [1,1,1,3,3-pentafluoropropane] + CCCCCC[n+]1ccn(C)c1.O=S(=O)([N-]S(=O)(=O)C(F)(F)F)C(F)(F)F
- binary diffusion coefficient (303.15 K, 50.4 kPa): 8.4e-11 m2/s
- binary diffusion coefficient (313.15 K, 63.9 kPa): 1.22e-10 m2/s
- binary diffusion coefficient (323.15 K, 69.8 kPa): 2.06e-10 m2/s
- binary diffusion coefficient (333.15 K, 74.9 kPa): 2.75e-10 m2/s
- binary diffusion coefficient (343.15 K, 84.6 kPa): 3.47e-10 m2/s
